Source: patent US8795977B2, “Method for screening a potential modulator compound of a taste receptor” (Conopco, Inc., priority 2009, dated 2014)

System: Control cells (no T1R1/T1R3)
Assay: Calcium-based receptor assay in control cells not expressing the receptor
Assay type: cell-based, human
Details: change in fluorescence (ΔF)
From the text: We developed a unique functional umami receptor assay to evaluate and quantify umami in tomato and other crude plant or food extracts using the BRET technique: to test the principle we used the donor and acceptor proteins relating to BRET-2. In short, the human T1R1 and T1R3 taste receptors were cloned and fused with Renilla luciferase (Rluc) as donor protein; green fluorescent protein-2 (GFP2) served as acceptor protein and was fused to β-arrestin-2. Both constructs were transfected into a HEK293 cell line cells) for heterologous expression of the proteins. Various mammalian cell lines have been reported to be highly suitable for expression of receptors or other proteins, with HEK293 (human embryonic kidney) cells and CHO (Chinese hamster ovary) cells being some of the most versatile and suitable ones^12. Similarly, GPCRs can be expressed in various ways as described in multiple publications, such as transient^6, 8, 13-15 or stable (constitutive or inducible)^6, 9, 16, 17 expression, depending on the nature of the experiment, the respective receptor or the available time. Upon receptor stimulation with an agonist or crude extracts, the β-arrestin-2/GFP-2 protein interacts with the activated receptor thus bringing GFP-2 in close proximity with luciferase, making energy transfer between these two proteins possible and generating a BRET signal. In the presence of oxygen the luciferase catalyses the transformation of the substrate DeepBlueC into coelenteramide, which can be measured at 395-410 nm. If GFP-2 is in close proximity to the luciferase and energy transfer takes place, the emission will shift to 510 nm; this is referred to as the BRET signal and is expressed as ratio between the acceptor (GFP-2) and the donor (Renilla luciferase). The following experiments are designed to illustrate that conventional calcium-based functional receptor assays are not suitable for measuring the effects of crude extracts; in contrast, the BRET assay (as indicated here with umami) can clearly measure specific receptor responses using crude natural extracts. Moreover, the assay is also sensitive enough for detecting differences of receptor activation between the different tomato samples. Materials & Methods: Chemicals and Media: Fluo-4 AM was from Molecular Probes (# F-14202, prepared as 5 mM stock in DMSO), DMEM (with 4.5 g/l glucose and ultraglutamine, # BE12-604F) was from Lonza, trypsin-EDTA, Lipofectamine 2000, OptiMem and FCS were obtained from Life Technologies Invitrogen. Monosodium glutamate (MSG), Inosine 5′-monophosphate as well as all other chemicals were from Sigma-Aldrich. The plasmid encoding GFP2-β-arrestin-2 was purchased from BioSignal Packard (#6310176). Coelenterazine 400A (a DeepBlueC derivative) and Coelenterazine-H were from VWR International (# BTIU10125-1 and 233903-50, respectively). All other cell culture supplies were from Greiner BioOne. Receptor Fusion Constructs, Cell Lines, and Media: The human T1R1 and human T1R3 umami receptors were fused at their C-terminal in frame to Renilla Luciferase (Rluc) using standard molecular cloning techniques and the codon-humanized pRluc-N3 vector from PerkinElmer (#6310220). For expression of the umami receptors and the construct encoding GFP-2/β-arrestin-2, HEK293 cells (human embryonic kidney cells, ATCC) were used using traditional transfection methods (see also below). HEK293 cells were maintained in DMEM and 10% FBS at 37° C./5% CO2. Tomato Extracts: The tomato extracts which served as representative natural, complex test material were prepared as follows: Frozen tomato samples (in −80° C.) were weighed and dissolved in an equal amount of water. After the seeds and locular tissues (pulp) were removed and put aside, the tomato pericarp (flesh) was ground using a mortar and pestle. The seeds and pulp were then added back to the mixture ensuring that they are well mixed and the seeds were not crushed. […]

N[C@@H](CCC(=O)O)C(=O)[O-].[Na+] [MSG, Monosodium glutamate]
release of intracellular calcium, Control cells (no T1R1/T1R3), average (100 μM MSG): 1135
release of intracellular calcium, Control cells (no T1R1/T1R3), meas. 1 (100 μM MSG): 1102
release of intracellular calcium, Control cells (no T1R1/T1R3), meas. 2 (100 μM MSG): 1168
release of intracellular calcium, Control cells (no T1R1/T1R3), average (1 mM MSG): 1060
release of intracellular calcium, Control cells (no T1R1/T1R3), meas. 1 (1 mM MSG): 1100
release of intracellular calcium, Control cells (no T1R1/T1R3), meas. 2 (1 mM MSG): 1020
release of intracellular calcium, Control cells (no T1R1/T1R3), average (10 mM MSG): 1115
release of intracellular calcium, Control cells (no T1R1/T1R3), meas. 1 (10 mM MSG): 1200
release of intracellular calcium, Control cells (no T1R1/T1R3), meas. 2 (10 mM MSG): 1030
